The values below are quoted from earlier work in US20250325518A1, “USE OF A COMBINATION OF SACUBITRIL AND VALSARTAN” (Novartis AG, priority 2016, published 2025).

The subject of data set [1] is patients 8 months to 14 years with HF due to congenital heart disease or cardiomyopathy. Conditions: pediatric HF patients 8 months to 14 years; placebo-controlled.
The test system of data set [2] is adult patients with HF with reduced ejection fraction (HFrEF). Conditions: LCZ696 vs enalapril.

Turning to `COc1ccccc1OCCNCC(O)COc1cccc2[nH]c3ccccc3c12` (stereo not shown) [carvedilol], the “composite measure of HF outcomes (worsening, improved or unchanged), primary endpoint” value in data set [1] is listed as “did not meet its composite primary endpoint”.

With “trisodium [3-((1S,3R)-1-biphenyl-4-ylmethyl-3-ethoxycarbonyl-1-butylcarbamoyl)propionate-(S)-3′-methyl-2′-(pentanoyl{2″-(tetrazol-5-ylate)biphenyl-4′-ylmethyl}amino)butyrate] hemipentahydrate [LCZ696]”, the “relative risk reduction (RRR), time to first occurrence of composite endpoint of CV death or HF hospitalization” value in data set [2] (N=8442, p=0.0000002) is 20%. In data set [2] (p=0.00004), the “relative risk reduction (RRR), time to CV death” value is given as 20% and the “relative risk reduction (RRR), time to first HF hospitalization” value is recorded as 21%.
